Patent publication US9289517B2 (COMMISSARIAT A L'ENERGIE ATOMIQUE ET AUX ENERGIES …, priority 2008, dated 2016)

Experiments:
[1] = Behaviour in isotonic medium (154 mM sodium chloride); format: physicochemical
[2] = Fluorescence level measured under optical device (capillaries); details: approximately 25 minutes after first measurement; 2.5 nmoles ICG in water, 0.5 nmoles as nanoemulsions
[3] = Fluorescence quantum yield F; format: physicochemical; details: directly, 10 and 40 days after dialysis
[4] = prior-art statement; tissue autofluorescence typically 0.3-0.4 ns; cited from earlier work

Question: With indocyanine green [ICG] as the substance, how does the “behaviour in isotonic medium” value [1] read?
Answer: The value was “flocculates”.

Question: What about the “fluorescence level over time” value [2] of the same substance?
Answer: The value was “reduction over time of the fluorescence level”.

Question: What about the “stability of quantum yield over time” value [3] of the same substance?
Answer: Its value is “the quantum yield remains stable over time, unlike that of free ICG in water”.

Question: What about the “fluorescence lifetime of ICG” value [4] of the same substance?
Answer: The value was 0.5 ns.
